# Laboratory results: patent US20250340538A1, “IMIDAZOLONE DERIVATIVES AS INHIBITORS OF PROTEIN KINASES IN PARTICULAR DYRK1A, CLK1 AND/OR CLK4” (PERHA PHARMACEUTICALS, priority 2021, published 2025)
# “And” between values parts separate entries of the source, which are not always exact repeats. Identical values can stand only once. Like-named read-outs stand apart in the source and are kept apart here.
# Tests used:
# Type in all cases: biochemical
# CLK1 = biological target: T1, CLK1 (Homo sapiens, UniProt P49759); assay: Radiometric protein kinase assay (33PanQinase Activity Assay), CLK1; conditions: read-out: Potency Class CLK1
# T1 construct: GST-fusion or His-tag (not specified per kinase); purchased ProQinase GmbH; host or cells: Sf9 insect cells or E. coli (not specified per kinase)
# T1 sequence (P49759 whole entry, the tested form may be a part): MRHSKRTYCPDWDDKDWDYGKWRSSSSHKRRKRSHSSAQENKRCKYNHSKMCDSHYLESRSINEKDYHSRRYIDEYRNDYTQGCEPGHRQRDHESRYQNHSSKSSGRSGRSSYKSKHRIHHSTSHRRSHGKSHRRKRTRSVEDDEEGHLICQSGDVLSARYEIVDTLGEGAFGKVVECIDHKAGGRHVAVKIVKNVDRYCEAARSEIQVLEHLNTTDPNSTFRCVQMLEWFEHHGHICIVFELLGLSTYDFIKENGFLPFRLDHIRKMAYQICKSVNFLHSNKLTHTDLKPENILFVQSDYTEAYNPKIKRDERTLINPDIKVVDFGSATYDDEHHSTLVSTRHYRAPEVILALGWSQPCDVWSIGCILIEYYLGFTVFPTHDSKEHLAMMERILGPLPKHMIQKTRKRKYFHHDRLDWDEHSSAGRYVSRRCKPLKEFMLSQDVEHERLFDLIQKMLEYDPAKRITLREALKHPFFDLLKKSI
# Summary of the method: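 Semi-log compound dilutions, ten final concentrations between 10 μM and 30 nM, went into reactions containing [γ-33P]-ATP and recombinant human enzyme with substrate. After 60 minutes at 30 °C the reaction was stopped with phosphoric acid, and radiolabel incorporation gave IC50 values.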
# CLK2 = biological target: T2, CLK2 (Homo sapiens, UniProt P49760); assay: Radiometric protein kinase assay (33PanQinase Activity Assay), CLK2; conditions: read-out: IC50 on CLK2 (most potent CLK2 inhibitors)
# T2 construct: GST-fusion or His-tag (not specified per kinase); purchased ProQinase GmbH; host or cells: Sf9 insect cells or E. coli (not specified per kinase)
# T2 sequence (P49760 whole entry, the tested form may be a part): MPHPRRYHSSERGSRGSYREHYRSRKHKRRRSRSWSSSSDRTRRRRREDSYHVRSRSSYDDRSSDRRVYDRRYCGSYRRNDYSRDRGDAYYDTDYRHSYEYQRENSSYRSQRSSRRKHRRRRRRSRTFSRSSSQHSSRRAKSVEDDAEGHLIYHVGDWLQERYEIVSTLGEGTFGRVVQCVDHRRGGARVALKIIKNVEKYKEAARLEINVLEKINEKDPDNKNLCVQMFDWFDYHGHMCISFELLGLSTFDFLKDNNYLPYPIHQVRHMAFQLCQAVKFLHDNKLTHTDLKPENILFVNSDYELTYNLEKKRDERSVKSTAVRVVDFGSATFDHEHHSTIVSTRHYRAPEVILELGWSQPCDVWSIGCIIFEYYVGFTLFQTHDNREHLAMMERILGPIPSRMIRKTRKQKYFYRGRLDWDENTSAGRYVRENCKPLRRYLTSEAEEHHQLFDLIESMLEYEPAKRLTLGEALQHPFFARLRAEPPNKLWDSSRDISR
# Description: (§1) Assays were performed by ProQinase GmbH (Engesserstr. 4, D-79108 Freiburg, Germany. www.proqinase.com). The IC50 profile of all compounds was determined using 12 protein kinases (CDK2/cyclin E, CK1ε, CLK1, 2, 3, 4, DYRK1A, 1B, 2, 3, 4, GSK3β).
# (§2) The compounds were provided as […] in 100% DMSO. Prior to testing, the 1 μM stock solutions were subjected to a serial, semi-logarithmic dilution using 100% DMSO as a solvent. […] In the process, 90 μl H2O were added to each well of each compound dilution plate. To minimize potential precipitation, the H2O was added to each plate only a few minutes before the transfer of the compound solutions into the assay plates. The plate was shaken thoroughly, resulting in a compound dilution plate/10% DMSO.
# (§3) For the assays (see below), 5 μL solution from each well of the compound dilution plates/10% DMSO were transferred into the assay plates. The final volume of the assay was 50 μL. All compounds were tested at 10 final assay concentrations in the range from 10 μM to 30 nM. The final DMSO concentration in the reaction cocktails was 1% in all cases.
# (§4) All protein kinases provided by ProQinase were expressed in Sf9 insect cells or in E. coli as recombinant GST-fusion proteins or His-tagged proteins, either as full-length or enzymatically active fragments. All kinases were produced from human cDNAs and purified by either GSH-affinity chromatography or immobilized metal. Affinity tags were removed from a number of kinases during purification. The purity of the protein kinases was examined by SDS-PAGE/Coomassie staining, the identity was checked by mass spectroscopy.
# (§5) A radiometric protein kinase assay (33PanQinase® Activity Assay) was used for measuring the kinase activity of the 12 protein kinases. All kinase assays were performed in 96-well FlashPlates™ from PerkinElmer (Boston, MA, USA) in a 50 μL reaction volume. The reaction cocktail was pipetted in four steps in the following order: • 25 μL of assay buffer (standard buffer/[γ-^33P]-ATP), • 10 μL of ATP solution (in H2O), • 5 μL of test compound (in 10% DMSO), • 10 μL of enzyme/substrate mixture.
# (§6) The reaction cocktails were incubated at 30° C. for 60 minutes. The reaction was stopped with 50 μL of 2% (v/v) H3PO4, plates were aspirated and washed two times with 200 μL 0.9% (w/v) NaCl. Incorporation of ^33Pi was determined with a microplate scintillation counter (Microbeta, Wallac). The IC50 values for all compounds were calculated from the dose response curves
# (§7) As a parameter for assay quality, the Z′-factor (Zhang et al., J. Biomol. Screen. 2: 67-73, 1999) for the low and high controls of each assay plate (n=8) was used. ProQinase's criterion for repetition of an assay plate is a Z′-factor below 0.4 (Iversen et al., J. Biomol. Screen. 3: 247-252, 2006).
# DYRK1A = biological target: T3, DYRK1A (Homo sapiens, UniProt Q13627); assay: Radiometric protein kinase assay (33PanQinase Activity Assay), DYRK1A; conditions: for Selectivity Class DYRK1A vs. CLK1: ratio of IC50 on CLK1 over IC50 on DYRK1A; for Selectivity Class DYRK1A vs. DYRK1B: ratio of IC50 on DYRK1B over IC50 on DYRK1A
# T3 construct: GST-fusion or His-tag (not specified per kinase); purchased ProQinase GmbH; host or cells: Sf9 insect cells or E. coli (not specified per kinase)
# Summary of the method: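 Recombinant human kinase, expressed in Sf9 or E. coli, in a radiometric [γ-33P]-ATP assay at 30 °C for 60 min. Compounds tested at 10 concentrations from 10 μM to 30 nM, 1% DMSO final. 33Pi incorporation measured by scintillation counting; IC50 from dose-response curves.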
# CLK4 = biological target: T4, CLK4 (Homo sapiens, UniProt Q9HAZ1); assay: Radiometric protein kinase assay (33PanQinase Activity Assay), CLK4; conditions: read-out: IC50 on CLK4 (most potent CLK4 inhibitors)
# T4 construct: GST-fusion or His-tag (not specified per kinase); purchased ProQinase GmbH; host or cells: Sf9 insect cells or E. coli (not specified per kinase)
# T4 sequence (Q9HAZ1 whole entry, the tested form may be a part): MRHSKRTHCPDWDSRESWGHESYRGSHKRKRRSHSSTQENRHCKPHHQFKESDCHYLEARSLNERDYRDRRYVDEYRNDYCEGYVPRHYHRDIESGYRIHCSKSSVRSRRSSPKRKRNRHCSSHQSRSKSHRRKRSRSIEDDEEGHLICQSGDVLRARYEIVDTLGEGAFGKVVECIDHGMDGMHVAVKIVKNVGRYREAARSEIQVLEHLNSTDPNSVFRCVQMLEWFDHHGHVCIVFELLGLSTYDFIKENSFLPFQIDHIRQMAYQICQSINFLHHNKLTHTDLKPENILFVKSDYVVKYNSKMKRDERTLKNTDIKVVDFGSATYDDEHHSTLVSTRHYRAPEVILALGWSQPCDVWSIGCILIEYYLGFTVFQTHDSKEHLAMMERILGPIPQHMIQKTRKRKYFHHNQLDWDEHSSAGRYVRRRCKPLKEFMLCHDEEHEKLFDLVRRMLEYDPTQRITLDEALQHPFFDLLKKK
# Description: as §1, §2, §3, §4, §5, §6, §7
# DYRK1B = biological target: T5, DYRK1B (Homo sapiens, UniProt Q9Y463); assay: Radiometric protein kinase assay (33PanQinase Activity Assay), DYRK1B; conditions: read-out: IC50 on DYRK1B (most potent DYRK1B inhibitors)
# T5 construct: GST-fusion or His-tag (not specified per kinase); purchased ProQinase GmbH; host or cells: Sf9 insect cells or E. coli (not specified per kinase)
# T5 sequence (Q9Y463 whole entry, the tested form may be a part): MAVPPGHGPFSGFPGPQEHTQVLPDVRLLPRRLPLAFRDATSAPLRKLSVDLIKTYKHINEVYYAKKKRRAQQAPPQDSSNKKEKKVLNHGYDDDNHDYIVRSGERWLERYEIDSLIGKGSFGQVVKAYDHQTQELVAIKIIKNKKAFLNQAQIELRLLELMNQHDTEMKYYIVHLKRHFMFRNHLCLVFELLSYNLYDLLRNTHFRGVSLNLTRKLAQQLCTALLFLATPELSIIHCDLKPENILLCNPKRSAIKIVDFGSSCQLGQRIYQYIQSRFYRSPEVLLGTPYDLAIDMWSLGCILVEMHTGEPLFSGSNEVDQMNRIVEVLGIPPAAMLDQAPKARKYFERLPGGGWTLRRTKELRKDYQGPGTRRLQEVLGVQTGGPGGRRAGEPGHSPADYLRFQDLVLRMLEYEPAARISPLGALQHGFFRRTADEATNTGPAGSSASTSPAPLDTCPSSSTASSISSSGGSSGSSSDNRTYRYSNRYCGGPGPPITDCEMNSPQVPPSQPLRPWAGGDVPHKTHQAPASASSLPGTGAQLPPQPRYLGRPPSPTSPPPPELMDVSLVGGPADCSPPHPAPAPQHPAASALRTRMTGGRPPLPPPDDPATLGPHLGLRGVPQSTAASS
# Description: as §1, §2, §3, §4, §5, §6, §7
# DYRK2 = biological target: T6, DYRK2 (Homo sapiens, UniProt Q92630); assay: Radiometric protein kinase assay (33PanQinase Activity Assay), DYRK2; conditions: read-out: IC50 on DYRK2 (most potent DYRK2 inhibitors)
# T6 construct: GST-fusion or His-tag (not specified per kinase); purchased ProQinase GmbH; host or cells: Sf9 insect cells or E. coli (not specified per kinase)
# T6 sequence (Q92630 1-601): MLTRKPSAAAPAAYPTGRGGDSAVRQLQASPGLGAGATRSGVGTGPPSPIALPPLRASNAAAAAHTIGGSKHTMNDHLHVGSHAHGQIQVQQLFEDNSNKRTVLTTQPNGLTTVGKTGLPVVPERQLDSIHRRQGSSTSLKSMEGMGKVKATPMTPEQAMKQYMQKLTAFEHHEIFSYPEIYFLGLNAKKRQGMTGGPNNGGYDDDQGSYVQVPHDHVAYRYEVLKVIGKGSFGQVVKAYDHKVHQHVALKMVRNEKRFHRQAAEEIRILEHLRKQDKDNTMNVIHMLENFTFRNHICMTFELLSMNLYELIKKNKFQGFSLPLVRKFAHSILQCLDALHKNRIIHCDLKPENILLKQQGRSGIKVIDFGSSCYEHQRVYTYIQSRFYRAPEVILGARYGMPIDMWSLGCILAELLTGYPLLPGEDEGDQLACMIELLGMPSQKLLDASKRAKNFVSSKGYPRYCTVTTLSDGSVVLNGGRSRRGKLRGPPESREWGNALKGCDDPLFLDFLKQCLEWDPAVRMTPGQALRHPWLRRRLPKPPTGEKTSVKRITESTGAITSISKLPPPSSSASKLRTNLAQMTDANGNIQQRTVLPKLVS
# Description: as §1, §2, §3, §4, §5, §6, §7
# DYRK3 = biological target: T7, DYRK3 (Homo sapiens, UniProt O43781); assay: Radiometric protein kinase assay (33PanQinase Activity Assay), DYRK3; conditions: read-out: IC50 on DYRK3 (most potent DYRK3 inhibitors)
# T7 construct: GST-fusion or His-tag (not specified per kinase); purchased ProQinase GmbH; host or cells: Sf9 insect cells or E. coli (not specified per kinase)
# T7 sequence (O43781 1-588): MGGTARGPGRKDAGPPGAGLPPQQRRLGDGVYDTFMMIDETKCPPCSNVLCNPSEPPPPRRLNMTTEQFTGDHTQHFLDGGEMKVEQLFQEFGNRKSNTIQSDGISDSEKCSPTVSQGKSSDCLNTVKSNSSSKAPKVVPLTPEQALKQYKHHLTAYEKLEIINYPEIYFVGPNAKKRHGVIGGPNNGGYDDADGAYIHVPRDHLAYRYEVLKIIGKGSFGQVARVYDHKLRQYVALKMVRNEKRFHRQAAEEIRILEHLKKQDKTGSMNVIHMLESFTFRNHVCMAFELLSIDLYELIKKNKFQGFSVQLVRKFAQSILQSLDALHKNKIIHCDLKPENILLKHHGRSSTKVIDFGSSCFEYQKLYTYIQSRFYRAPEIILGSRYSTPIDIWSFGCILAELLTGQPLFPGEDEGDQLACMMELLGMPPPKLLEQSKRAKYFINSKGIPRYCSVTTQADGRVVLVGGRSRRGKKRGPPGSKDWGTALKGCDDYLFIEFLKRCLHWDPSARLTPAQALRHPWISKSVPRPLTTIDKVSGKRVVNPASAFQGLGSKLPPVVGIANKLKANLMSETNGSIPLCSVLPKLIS
# Description: as §1, §2, §3, §4, §5, §6, §7
# [1] = class by IC50 on CLK1, from dose-response curves
# [2] = class by IC50 on DYRK1A, from dose-response curves, read-out: Potency Class DYRK1A
# [3] = IC50 class A to E, read-out: Potency Class DYRK1A
# [4] = read-out: IC50 on DYRK1A (most potent DYRK1A inhibitors)
IC50 (CLK1; [1]) [nM],IC50 (CLK2) [nM],IC50 (DYRK1A; [2]) [nM],Selectivity Class DYRK1A vs. CLK1 (DYRK1A),Selectivity Class DYRK1A vs. DYRK1B (DYRK1A),IC50 (CLK1; IC50 class A to E) [nM],IC50 (CLK4) [nM],IC50 (DYRK1A; [3]),IC50 (DYRK1A; [4]) [nM],IC50 (DYRK1B) [nM],IC50 (DYRK2) [nM],IC50 (DYRK3) [nM],Structure (SMILES)
25 to 50,≤ 100,10 to 25,II (ratio between 2 and 10 fold),II (ratio between 2 and 10 fold),–,–,–,–,–,–,–,"O=C1NC(NC23CC4CC(CC(C4)C2)C3)=N/C1=C\c1ccc2nccnc2c1 [Compound 17, (4Z)-2-(1-adamantylamino)-4-(quinoxalin-6-ylmethylene)-1H-imidazol-5-one]"
10 to 25,–,< 5,II (ratio between 2 and 10 fold),II (ratio between 2 and 10 fold),10 to 25,≤ 10,≤ 5 nM,≤ 10,≤ 10,–,–,"O=C1NC(NC23CC4CC(CC(O)(C4)C2)C3)=N/C1=C\c1ccc2nccnc2c1 [Compound 18, (4Z)-2-[(3-hydroxy-1-adamantyl)amino]-4-(quinoxalin-6-ylmethylene)-1H-imidazol-5-one]"
10 to 25,≤ 100,< 5,II (ratio between 2 and 10 fold),II (ratio between 2 and 10 fold),10 to 25,≤ 10,≤ 5 nM,≤ 10,≤ 10,≤ 250,–,"COC12CC3CC(CC(NC4=N/C(=C\c5ccc6nccnc6c5)C(=O)N4)(C3)C1)C2 [Compound 19, (4Z)-2-[(3-methoxy-1-adamantyl)amino]-4-(quinoxalin-6-ylmethylene)-1H-imidazol-5-one]"
10 to 25,–,5 to 10,II (ratio between 2 and 10 fold),II (ratio between 2 and 10 fold),10 to 25,≤ 10,5 to 10 nM,≤ 10,–,≤ 250,≤ 250,"O=C1NC(NC23CC4CC(CC2C4)C3)=N/C1=C\c1ccc2ncccc2c1 [Compound 48, (4Z)-2-(3-noradamantylamino)-4-(6-quinolylmethylene)-1H-imidazol-5-one]"
10 to 25,≤ 100,10 to 25,II (ratio between 2 and 10 fold),III (ratio between 0.5 and 2 fold),10 to 25,–,10 to 25 nM and 5 to 10 nM,≤ 10,–,–,≤ 250,"O=C1NC(NC23CC4CC(CC(C4)C2)C3)=N/C1=C\c1ccc2ncccc2c1 [Compound 49, (4Z)-2-(1-adamantylamino)-4-(6-quinolylmethylene)-1H-imidazol-5-one]"
25 to 50,≤ 100,25 to 50,III (ratio between 0.5 and 2 fold),III (ratio between 0.5 and 2 fold),–,–,–,–,–,–,≤ 250,"O=C1NC(NC23CC4CC(CC(C4)C2)C3)=N/C1=C\c1ccc2cnccc2c1 [Compound 61, (4Z)-2-(1-adamantylamino)-4-(6-isoquinolylmethylene)-1H-imidazol-5-one]"
10 to 25,–,> 50,IV (ratio between 0.1 and 0.5 fold),II (ratio between 2 and 10 fold),10 to 25,≤ 10,> 50 nM,–,–,–,–,"COC[C@H](NC1=N/C(=C\c2ccc3ncccc3n2)C(=O)N1)c1ccccc1 [Compound 71, (4Z)-2-[[(1R)-2-methoxy-1-phenyl-ethyl]amino]-4-(1,5-naphthyridin-2-ylmethylene)-1H-imidazol-5-one]"
> 50,–,> 50,IV (ratio between 0.1 and 0.5 fold),IV (ratio between 0.1 and 0.5 fold),–,–,–,–,–,≤ 250,≤ 250,"CN1C(=O)/C(=C/c2ccc3cnccc3c2)N=C1NC1CCCCCC1 [Compound 87, (5Z)-2-(Cycloheptylamino)-3-methyl-5-(isoquinolin-6-ylmethylene)imidazol-4-one]"
